Values of other authors, collected in patent US20020102237A1, “Compositions and methods for hepatitis treatment” (priority 2000, published 2002).

Test system: hepatitis C infection

| Substance | patients responding with normalization of alanine aminotransferase (ALT) (hepatitis C infection, 3 million units subcutaneously three times weekly for six months) | relapse of responders upon discontinuation of therapy (hepatitis C infection, after standard six-month therapy) | response rate (long term efficacy) (chronic hepatitis C, interferon with or without Ribavirin) |
| --- | --- | --- | --- |
| alpha-interferon | approximately 50% | half of those responding relapse |  |
| interferon |  |  | about 25% |
